Results: ChEMBL document CHEMBL4190183 (Medchemcomm, 2016)
Activity calls are given as the source filed them. The rule behind the calls is not given here.

Tests used:
HepG2 [1] = assay: Cytotoxicity against human HepG2 cells assessed as cell death at 10 uM after 48 hrs by MTT assay relative to control; type: functional
HEK293 = assay: Cytotoxicity against HEK293 cells assessed as cell death at 10 uM after 48 hrs by MTT assay relative to control; type: cell-based; conditions: human, hek293, 48 h
DNA ligase 1 [2] = molecular target: T1, DNA ligase 1 (Homo sapiens, UniProt P18858); assay: Inhibition of human DNA ligase 1 expressed in Escherichia coli BL21(DE3)RP cells assessed as reduction in fluorescently labelled ds nicked DNA substrate ligation at 100 uM after 30 mins by urea gel based imaging method relative to control
DLD-1 = assay: Cytotoxicity against human DLD1 cells assessed as cell death at 10 uM after 48 hrs by MTT assay relative to control; type: functional
A549 = assay: Cytotoxicity against human A549 cells assessed as cell death at 10 uM after 48 hrs by MTT assay relative to control; type: functional
MDA-MB-231 = assay: Cytotoxicity against human MDA-MB-231 cells assessed as cell death at 10 uM after 48 hrs by MTT assay relative to control; type: functional
DNA ligase 1 [3] = molecular target: T1, DNA ligase 1; assay: Residual activity of human DNA ligase 1 expressed in Escherichia coli BL21(DE3)RP cells assessed as DNA ligation at 100 uM using fluorescently labelled ds nicked DNA as substrate after 30 mins by urea gel based imaging method relative to control
HCT-116 = assay: Cytotoxicity against human HCT116 cells assessed as cell death at 10 uM after 48 hrs by MTT assay relative to control; type: functional
HepG2 [4] = assay: Induction of cell death in human HepG2 cells at 0.625 uM after 48 hrs by MTT assay; type: functional, cell-based
[5] = Retention time of the compound by LC-MS/MS analysis; type: physicochemical

T1 sequence (P18858 whole entry): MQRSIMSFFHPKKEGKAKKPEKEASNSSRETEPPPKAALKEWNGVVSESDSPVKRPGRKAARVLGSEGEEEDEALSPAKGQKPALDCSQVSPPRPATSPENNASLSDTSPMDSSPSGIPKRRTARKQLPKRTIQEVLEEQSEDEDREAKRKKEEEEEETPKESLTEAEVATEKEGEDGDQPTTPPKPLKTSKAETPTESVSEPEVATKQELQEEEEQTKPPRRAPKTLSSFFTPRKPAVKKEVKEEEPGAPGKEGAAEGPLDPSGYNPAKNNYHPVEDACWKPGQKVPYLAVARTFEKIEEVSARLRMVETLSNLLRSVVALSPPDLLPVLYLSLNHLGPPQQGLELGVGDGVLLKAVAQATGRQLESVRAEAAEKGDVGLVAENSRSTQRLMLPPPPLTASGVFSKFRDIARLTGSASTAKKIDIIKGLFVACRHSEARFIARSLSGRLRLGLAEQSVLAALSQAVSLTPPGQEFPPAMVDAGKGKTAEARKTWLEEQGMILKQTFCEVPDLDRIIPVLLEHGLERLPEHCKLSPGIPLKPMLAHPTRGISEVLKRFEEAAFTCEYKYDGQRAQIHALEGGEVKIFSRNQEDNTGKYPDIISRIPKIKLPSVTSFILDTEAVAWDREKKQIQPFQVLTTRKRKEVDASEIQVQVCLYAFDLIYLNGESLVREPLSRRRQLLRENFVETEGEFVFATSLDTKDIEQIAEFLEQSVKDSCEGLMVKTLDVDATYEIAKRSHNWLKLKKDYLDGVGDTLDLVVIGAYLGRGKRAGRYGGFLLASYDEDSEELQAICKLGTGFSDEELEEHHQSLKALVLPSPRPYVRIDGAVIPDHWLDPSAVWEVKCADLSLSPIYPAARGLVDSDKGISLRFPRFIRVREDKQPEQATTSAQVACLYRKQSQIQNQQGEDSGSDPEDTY

Structure (SMILES) | Activity (HepG2 [1]) [%] | Activity (HEK293) [%] | inhibition (DNA ligase 1 [2]) [%] | Activity (DLD-1) [%] | Activity (A549) [%] | Activity (MDA-MB-231) [%] | ligation (DNA ligase 1 [3]) [%] | Activity (HCT-116) [%] | Activity (HepG2 [4]) | Retention_time [5] [min]
CCOC(=O)C1=C(C)NC(=O)NC1c1cc(C)c(O)c(/C=N/NC(N)=O)c1 (stereo unspecified) | 9.7 | 15.7 | 64.3 | -3 | 7 | 13.9 | 35.7 | 4.3 | – | –
CCOC(=O)C1=C(C)NC(=O)NC1c1cc(C)c(O)c(/C=N/NC(N)=S)c1 (stereo unspecified) | 23.3 | 6.7 | 84.1 | 6.2 | 4.7 | 10.7 | 15.9 | 1.3 | – | –
CCOC(=O)C1=C(C)NC(=S)NC1c1cc(/C=N/NC(=O)Nc2ccc(Cl)cc2)c(O)c(C(C)(C)C)c1 (stereo unspecified) | 81.3 | 65.7 | 77.1 | 17.1 | 54 | 13.8 | 22.9 | 63.3 | – | –
CCOC(=O)C1=C(C)NC(=S)NC1c1cc(/C=N/NC(=O)Nc2ccccc2)c(O)c(C(C)(C)C)c1 (stereo unspecified) | 26 | 53.3 | 80.9 | 17.6 | 26.8 | 7 | 19.1 | 17.9 | – | –
CCOC(=O)C1=C(C)NC(=S)NC1c1cc(/C=N/NC(=S)Nc2ccccc2)c(O)c(C(C)(C)C)c1 (stereo unspecified) | 26.5 | 54.1 | 66.8 | 67.6 | 29.6 | 26.1 | 33.2 | 49.9 | – | –
CCOC(=O)C1=C(C)NC(=S)NC1c1cc(/C=N/NC(=S)Nc2ccc(C)cc2)c(O)c(C(C)(C)C)c1 (stereo unspecified) | 23.5 | 40.2 | 68.9 | 45.7 | 9.3 | 3.3 | 31.1 | 50.5 | – | –
CCOC(=O)C1=C(C)NC(=O)NC1c1cc(/C=N/NC(=S)NC)c(O)c(C(C)(C)C)c1 (stereo unspecified) | 23.7 | 24.6 | 80.8 | 34.1 | 27.3 | 29.7 | 19.2 | 22.5 | – | –
CCOC(=O)C1=C(C)NC(=S)NC1c1cc(C)c(O)c(/C=N/NC(=O)Nc2ccc(Cl)cc2)c1 (stereo unspecified) | 22.8 | 42.6 | 86.7 | 1 | 12.8 | 20.2 | 13.4 | 50.8 | – | –
CCOC(=O)C1=C(C)NC(=O)NC1c1cc(C)c(O)c(/C=N/NC(=S)NC)c1 (stereo unspecified) | 33.1 | 22.7 | 80.4 | 18.1 | 14 | 31 | 19.6 | 17.7 | – | –
CCOC(=O)C1=C(C)NC(=O)NC1c1cc(/C=N/NC(N)=O)c(O)c(C(C)(C)C)c1 (stereo unspecified) | 0.7 | 14 | 77.6 | 19.9 | 9.1 | 18.4 | 22.4 | 2.6 | – | –
CCOC(=O)C1=C(C)NC(=O)NC1c1cc(/C=N/NC(=S)Nc2ccc(Cl)cc2)c(O)c(C(C)(C)C)c1 (stereo unspecified) | 78.9 | 53.1 | 80.9 | 43 | 53.3 | 83.6 | 19.1 | 82.5 | – | –
COc1cccc2c1C(=O)c1c(O)c3c(c(O)c1C2=O)C[C@@](O)(C(=O)CO)C[C@@H]3O[C@H]1C[C@H](N)[C@H](O)[C@H](C)O1 | – | – | – | – | – | – | – | – | Active | –
CCOC(=O)C1=C(C)NC(=S)NC1c1cc(/C=N/NC(=S)Nc2ccc(Cl)cc2)c(O)c(C(C)(C)C)c1 (stereo unspecified) | 28.9 | 52.7 | 79.4 | 15.5 | 24.5 | 17.3 | 20.6 | 57.8 | – | –
CCOC(=O)C1=C(C)NC(=O)NC1c1cc(C)c(O)c(C=O)c1 (stereo unspecified) | 18.3 | 9.2 | 76.9 | 14.7 | 34.7 | 32.5 | 23.1 | 5.7 | – | –
OC(Cn1cncn1)(Cn1cncn1)c1ccc(F)cc1F [FLUCONAZOLE] | – | – | – | – | – | – | – | – | – | 2.08
CCOC(=O)C1=C(C)NC(=O)NC1c1cc(/C=N/NC(=O)Nc2ccc(Br)cc2)c(O)c(C(C)(C)C)c1 (stereo unspecified) | 65.3 | 35.3 | 84 | 60.2 | 45.3 | 44.8 | 16 | 57.2 | – | –
CCOC(=O)C1=C(C)NC(=O)NC1c1cc(/C=N/NC(N)=S)c(O)c(C(C)(C)C)c1 (stereo unspecified) | 11.1 | 17 | 80.4 | 5.5 | 17 | 21.1 | 19.6 | 7.8 | – | –
CCOC(=O)C1=C(C)NC(=O)NC1c1cc(/C=N/NC(=S)Nc2ccccc2)c(O)c(C(C)(C)C)c1 (stereo unspecified) | 43 | 48.3 | 88.1 | 30 | 48.7 | 50.4 | 12 | 43.2 | – | –
CCOC(=O)C1=C(C)NC(=O)NC1c1cc(/C=N/NC(=O)Nc2ccc(F)cc2)c(O)c(C(C)(C)C)c1 (stereo unspecified) | 37.1 | 46.8 | 84.7 | 19.1 | 39.3 | 43.7 | 15.3 | 17.5 | – | –
CCOC(=O)C1=C(C)NC(=O)NC1c1cc(C=O)c(O)c(C(C)(C)C)c1 (stereo unspecified) | 11.4 | 10.7 | 73.6 | 8.1 | 25.4 | 20.7 | 26.4 | 1.8 | – | –
